Consider 2 compounds from patent publication US20150245596A1, “MELANOCORTIN RECEPTOR MUTANT MOUSE AND USES THEREOF” (THE GENERAL HOSPITAL CORPORATION, priority 2012, published 2015).

Test [1] deals with primary cell line derived from one of the redhead (BRaf^V600E-Mc1r^e/e) melanomas. Particulars: redhead-derived melanoma cells.
Method: (§1) Tumor cells were digested overnight in 10 mg/ml collagenase and 1 mg/ml hyaluronidase. Initially tumor cells were grown in RPMI media with HEPES and 20% serum. Subsequently tumor cells were grown in DMEM media with 10% serum.
Test [2] has the same test system. Kind of test: cells. Particulars: Mus musculus, 72 h, read-out: GI50, melanoma cell proliferation.
Method: as §1
Test [3] deals with melanocytic markers (Mitf, Dct, Tyrp1 mRNA). Description: Quantitative RT-PCR of melanocytic markers in primary cultured tumor cells. Type of test: cell-based, mouse. Particulars: 2 μM PLX4720, mRNA normalized to 18s rRNA and 0 h timepoint. The method, then: RNA was harvested from primary cultured tumor cells treated for varying times with forskolin or PLX4720 using the RNeasy Plus mini kit (QIAGEN). mRNA expression of melanocytic markers was determined using intron-spanning mouse-specific primers with Kapa SYBR FAST qPCR master mix (KAPA BIOSYSTEMS). Expression was normalized to 18s rRNA and 0 hour time-points.

For the next test, the system named is redhead-BRaf^CA melanoma. Kind of test: In vivo PLX4720 study, mouse chow containing PLX4720. Particulars: 4 weeks of mouse chow containing 2% PLX4720 by weight, n=3.

The structures appear in SMILES notation. Entries after “also recorded” stand apart in the source; their conditions may differ.

Method for redhead-BRaf^CA melanoma: At 6-10 weeks of age the dorsal fur was trimmed using animal shears with a 0.25 mm head and the mice were treated topically with 20 mg/ml tamoxifen for 5 consecutive days. […] For in vivo PLX4720 studies, animals were given ad libitum mouse chow containing 2% PLX4720 by weight or control chow acquired from Plexxikon Inc. All studies and procedures involving animal subjects were approved by the Institutional Animal Care and Use Committees of Massachusetts General Hospital and Dana-Farber Harvard Cancer Center and were conducted strictly in accordance with the approved animal handling protocol.

Take `N#CC(=C(/N)Sc1ccccc1N)/C(C#N)=C(\N)Sc1ccccc1N` [U0126]: the “melanoma cell proliferation in vitro” value in test [1] is listed as “prevented melanoma cell proliferation in vitro”. For the same compound, the GI50 in test [2] amounted to 2 µM.
On to `CCCS(=O)(=O)Nc1ccc(F)c(C(=O)c2c[nH]c3ncc(Cl)cc23)c1F` [PLX4720], for which, in test [3], the “expression of melanocytic markers” value is given as “upregulates”. Moreover, the “melanoma growth in vivo” value with redhead-BRaf^CA melanoma is recorded as “blocked tumor cell growth in vivo; also recorded: blocks melanoma growth in vivo”. Moreover, the “melanoma cell proliferation in vitro” value in test [1] was “prevented melanoma cell proliferation in vitro”. For the same compound, in test [2], the GI50 worked out at 0.5 µM.
